The target in one experiment is EZH2/PRC2 complex (Homo sapiens, UniProt O75530). Description: Histone methyltransferase assay (radioisotope-based HotSpot). The experiment is classed as biochemical. To be noted: EZH2/PRC2 complex 10 nM, core histone substrate 0.05 mg/ml, 3H-SAM 1 μM; read-out: IC50, inhibitory effects on the HMT enzyme. Here is the method:
Effect of compounds of the present disclosure on EZH2/PRC2 complex methyltransferase functional activity was measured using the radioisotope-based HotSpot assay described by Horiuchi, K. Y., et al. Assay Drug Dev Technol. 11(4):227-36 (2013). Briefly, compounds were prepared in a 10-point 3-fold serial dilution in DMSO from a 10 mM stock in ECHO qualified plate using Assist Plus (Integra Biosciences) liquid handler. […] Nanoliter quantities of each compound's concentration series were transferred into the enzyme/substrate mix using (Echo 550, LabCyte Inc. Sunnyvale, Calif.) acoustic dispenser and pre-incubated for 20 min at room temperature. The methylation reaction was initiated by the addition of 1 μl of 5 μM S-Adenosyl-L-[methyl-^3H]methionine (^3H-SAM) and incubated at 30° C. for 1 h. The final concentration of the EZH2/PRC2 complex, core histone substrate and ^3H-SAM were 10 nM, 0.05 mg/ml, and 1 μM respectively. The % activity of test samples were calculated with reference to positive (no compound) and negative (no EZH2/PRC2) controls on the plate using Excel (Microsoft). The resulting values were exported to Prism (GraphPad software) to generate concentration response curves and IC50 values using the four-parameter logistic equation.

In experiment [1] the test system is human P-glycoprotein HEK cells (HEK-P-gp). Description: H3K27me3 immunocytochemistry assay in P-gp expressing HEK293T cells, with or without elacridar. The conditions noted are these: Homo sapiens, 4 days compound treatment. Type of experiment: cell-based. Put shortly:
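HEK293T stably expressing human ABCB1 (vinblastine-selected), 1000 cells/well, treated with serially diluted compound for 4 days at 37° C, with or without 250 nM elacridar. Fixed cells stained with anti-H3K27me3 plus Alexa 488 secondary and Hoechst; imaged at 10×, nuclei identified by Hoechst.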

The mark [2] stands for this setting: HEK293, 96 h, without elacridar, read-out: IC50, inhibitory activity on human P-glycoprotein HEK cells (HEK-P-gp).
Setting [3] is: HEK293, with 250 nM elacridar, read-out: IC50, inhibitory activity on human P-glycoprotein HEK cells (HEK-P-gp) pretreated with elacridar.

Read-outs that look alike come from different tables or passages of the source.

EZH2/PRC2 complex, sequence (O75530 whole entry): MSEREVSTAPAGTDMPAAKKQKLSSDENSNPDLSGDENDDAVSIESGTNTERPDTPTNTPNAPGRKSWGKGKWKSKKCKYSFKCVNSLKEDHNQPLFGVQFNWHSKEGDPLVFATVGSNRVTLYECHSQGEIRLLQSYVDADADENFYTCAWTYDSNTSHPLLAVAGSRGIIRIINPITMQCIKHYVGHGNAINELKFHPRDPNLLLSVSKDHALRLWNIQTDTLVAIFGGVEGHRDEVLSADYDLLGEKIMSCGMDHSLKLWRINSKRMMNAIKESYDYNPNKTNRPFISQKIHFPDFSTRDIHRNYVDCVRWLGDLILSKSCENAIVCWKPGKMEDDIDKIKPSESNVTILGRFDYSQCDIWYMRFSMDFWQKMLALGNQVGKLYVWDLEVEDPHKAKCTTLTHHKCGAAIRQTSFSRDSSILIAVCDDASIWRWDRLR
EZH2/PRC2 complex, sequence (Q15910 whole entry partner): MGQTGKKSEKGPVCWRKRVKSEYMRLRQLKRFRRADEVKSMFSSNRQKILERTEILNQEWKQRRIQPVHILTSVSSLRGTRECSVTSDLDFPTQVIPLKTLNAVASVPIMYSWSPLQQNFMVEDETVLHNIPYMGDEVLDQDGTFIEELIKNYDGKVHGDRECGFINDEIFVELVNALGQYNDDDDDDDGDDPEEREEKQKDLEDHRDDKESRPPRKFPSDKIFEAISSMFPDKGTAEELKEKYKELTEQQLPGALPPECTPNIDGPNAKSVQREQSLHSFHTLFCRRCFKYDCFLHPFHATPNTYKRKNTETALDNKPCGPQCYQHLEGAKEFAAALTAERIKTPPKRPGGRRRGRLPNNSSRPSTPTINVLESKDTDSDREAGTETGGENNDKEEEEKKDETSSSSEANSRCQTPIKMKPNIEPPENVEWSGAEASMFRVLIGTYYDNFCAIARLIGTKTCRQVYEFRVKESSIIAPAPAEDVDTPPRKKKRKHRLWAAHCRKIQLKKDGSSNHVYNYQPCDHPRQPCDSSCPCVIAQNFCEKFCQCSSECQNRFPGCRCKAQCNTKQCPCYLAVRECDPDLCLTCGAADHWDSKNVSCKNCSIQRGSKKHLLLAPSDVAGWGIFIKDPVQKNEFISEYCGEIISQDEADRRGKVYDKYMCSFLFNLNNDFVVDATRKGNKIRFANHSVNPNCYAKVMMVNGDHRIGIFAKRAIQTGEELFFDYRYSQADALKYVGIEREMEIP
EZH2/PRC2 complex, sequence (Q15022 whole entry partner): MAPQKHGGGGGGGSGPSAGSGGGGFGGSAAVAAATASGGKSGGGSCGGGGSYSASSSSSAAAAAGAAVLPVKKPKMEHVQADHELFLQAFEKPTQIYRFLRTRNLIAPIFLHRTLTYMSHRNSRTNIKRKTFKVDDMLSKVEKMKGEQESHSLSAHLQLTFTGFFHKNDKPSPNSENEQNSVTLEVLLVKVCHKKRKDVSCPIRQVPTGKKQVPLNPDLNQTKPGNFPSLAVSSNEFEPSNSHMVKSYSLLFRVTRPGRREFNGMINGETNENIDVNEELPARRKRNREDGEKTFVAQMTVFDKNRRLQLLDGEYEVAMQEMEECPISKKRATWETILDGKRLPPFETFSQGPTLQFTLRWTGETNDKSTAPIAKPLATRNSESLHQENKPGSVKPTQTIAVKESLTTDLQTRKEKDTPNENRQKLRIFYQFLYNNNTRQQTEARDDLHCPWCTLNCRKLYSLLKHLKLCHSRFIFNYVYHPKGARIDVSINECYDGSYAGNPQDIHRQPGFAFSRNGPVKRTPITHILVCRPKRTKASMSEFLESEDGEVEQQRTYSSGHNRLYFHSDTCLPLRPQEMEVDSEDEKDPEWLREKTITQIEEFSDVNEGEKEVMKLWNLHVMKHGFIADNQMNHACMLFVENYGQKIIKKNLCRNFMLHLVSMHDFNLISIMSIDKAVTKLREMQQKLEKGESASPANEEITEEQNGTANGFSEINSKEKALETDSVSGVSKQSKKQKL

A word on the IC50: it is the concentration needed to halve the response being measured. In the case of `CC(=O)N1CCC(c2cc3c(n4cnnc24)NCc2c(F)cccc2CCO3)CC1` [Compound 4, 1-(4-(12-fluoro-7,8,13,14-tetrahydro-[1,2,4]triazolo[4′,3′:1,6]pyrido[3,2-b]benzo[f][1,4]oxazonin-4-yl)piperidin-1-yl)ethan-1-one], the IC50 on EZH2/PRC2 complex is below 25 nM; in experiment [1] (setting [2]), above 500 nM; in experiment [1] (setting [3]), above 500 nM.

Turning to `Cc1cn(-c2cc3c(n4cnnc24)NCc2c(F)ccc4c2[C@@H](CO4)CO3)cn1` [Compound 15, (S)-12-fluoro-4-(4-methyl-1H-imidazol-1-yl)-7a,8,13,14-tetrahydro-7H-[1,2,4]triazolo[4′,3′:1,6]pyrido[3,2-b]benzofuro[4,3-fg][1,4]oxazonine], the concentration for half-maximal inhibition (IC50) on EZH2/PRC2 complex is below 25 nM; in experiment [1] (setting [2]), 25 to 50 nM; in experiment [1] (setting [3]), below 25 nM.

Consider `Cn1nc(F)cc1-c1cc2c(n3cnnc13)NCc1c(F)ccc3c1[C@@H](CO3)CO2` [Compound 168, (S)-12-fluoro-4-(3-fluoro-1-methyl-1H-pyrazol-5-yl)-7a,8,13,14-tetrahydro-7H-[1,2,4]triazolo[4′,3′:1,6]pyrido[3,2-b]benzofuro[4,3-fg][1,4]oxazonine], for which the 50% inhibitory concentration (IC50) (at EZH2/PRC2 complex; in experiment [1] (setting [2]); in experiment [1] (setting [3])) was below 25 nM each time.

Regarding `Cc1ncccc1-c1cc2c(n3cc(C(N)=O)nc13)NCc1c(F)ccc3c1[C@@H](CO3)CO2` [Compound 176, (S)-5-fluoro-12-(2-methylpyridin-3-yl)-6,7,15,15a-tetrahydro-1H-benzofuro[4,3-fg]imidazo[r,2′:1,6]pyrido[3,2-b][1,4]oxazonine-10-carboxamide], the half-maximal inhibitory concentration (IC50) at EZH2/PRC2 complex was 25 to 50 nM; in experiment [1] (setting [2]), above 500 nM; in experiment [1] (setting [3]), above 500 nM.

In the case of `Cn1cc(Cc2cc3c(n4cnnc24)NCc2c(F)ccc4c2[C@@H](CO4)CO3)cn1` [Compound 10, (S)-12-fluoro-4-((1-methyl-1H-pyrazol-4-yl)methyl)-7a,8,13,14-tetrahydro-7H-[1,2,4]triazolo[4′,3′:1,6]pyrido[3,2-b]benzofuro[4,3-fg][1,4]oxazonine], the half-inhibitory concentration (IC50) on EZH2/PRC2 complex was below 25 nM; in experiment [1] (setting [2]), above 500 nM; in experiment [1] (setting [3]), 100 to 500 nM.

As for `Cc1cc(C#N)ccc1-c1cc2c(n3cnnc13)NCc1c(F)ccc3c1[C@H](CO3)CO2` [Example 49], the half-inhibitory concentration (IC50) at EZH2/PRC2 complex is below 25 nM; in experiment [1] (setting [2]), 25 to 50 nM; in experiment [1] (setting [3]), below 25 nM.

Turning to `Cn1nccc1-c1cc2c(n3cc(C(N)=O)nc13)NCc1c(F)ccc3c1[C@@H](CO3)CO2` [Compound 175, (S)-5-fluoro-12-(1-methyl-1H-pyrazol-5-yl)-6,7,15,15a-tetrahydro-1H-benzofuro[4,3-fg]imidazo[r,2′:1,6]pyrido[3,2-b][1,4]oxazonine-10-carboxamide], the IC50 at EZH2/PRC2 complex was below 25 nM; in experiment [1] (setting [2]), above 500 nM; in experiment [1] (setting [3]) it was 100 to 500 nM.

As for `Cn1nc(C(F)(F)F)cc1-c1cc2c(n3cnnc13)NCc1c(F)ccc3c1[C@H](CO3)CO2` [Example 115], the IC50 was below 25 nM at EZH2/PRC2 complex, 25 to 50 nM in experiment [1] (setting [2]) and below 25 nM in experiment [1] (setting [3]).

`Cc1ncccc1-c1cc2c(n3cc(C#N)nc13)NCc1c(F)ccc3c1[C@@H](CO3)CO2` [Compound 186, (S)-5-fluoro-12-(2-methylpyridin-3-yl)-6,7,15,15a-tetrahydro-1H-benzofuro[4,3-fg]imidazo[1′,2′:1,6]pyrido[3,2-b][1,4]oxazonine-10-carbonitrile]: the figures for the IC50 (on EZH2/PRC2 complex; in experiment [1] (setting [2]); in experiment [1] (setting [3])) were below 25 nM, 50 to 100 nM and 25 to 50 nM, respectively.

For the molecule `Cc1ncccc1-c1cc2c(n3cnnc13)NCc1cccc3c1[C@H](CO3)CO2` [Compound 1, (15R)-10-(2-methyl-3-pyridyl)-13,17-dioxa-3,5,7,8-tetrazapentacyclo[13.6.1.04,12.05,9.018,22] docosa-1(22),4(12),6,8,10,18,20-heptaene], the IC50 at EZH2/PRC2 complex is below 25 nM; in experiment [1] (setting [2]), 100 to 500 nM; in experiment [1] (setting [3]), below 25 nM.

Consider `Cc1ncccc1-c1cc2c(n3cnnc13)NCc1c(F)cccc1COC2` [Compound 6, 12-fluoro-4-(2-methylpyridin-3-yl)-6,8,13,14-tetrahydro-[1,2,4]triazolo[4′,3′:1,6]pyrido[3,2-c]benzo[g][1,5]oxazonine], for which the 50% inhibitory concentration (IC50) (on EZH2/PRC2 complex; in experiment [1] (setting [2]); in experiment [1] (setting [3])) was above 500 nM each time.

With `Fc1ccc2c3c1CNc1c(cc(Br)c4nncn14)OC[C@@H]3CO2` [Compound 165, (S)-4-bromo-12-fluoro-7a,8,13,14-tetrahydro-7H-[1,2,4]triazolo[4′,3′:1,6]pyrido[3,2-b]benzofuro[4,3-fg][1,4]oxazonine], the IC50 on EZH2/PRC2 complex is below 25 nM; in experiment [1] (setting [2]) it was above 500 nM; in experiment [1] (setting [3]) it was above 500 nM.

For the molecule `Cn1nc(C(C)(C)C#N)cc1-c1cc2c(n3cnnc13)NCc1c(F)ccc3c1[C@@H](CO3)CO2` [Compound 169, (S)-2-(5-(12-fluoro-7a,8,13,14-tetrahydro-7H-[1,2,4]triazolo[4′,3′:1,6]pyrido[3,2-b]benzofuro[4,3-fg][1,4]oxazonin-4-yl)-1-methyl-1H-pyrazol-3-yl)-2-methylpropanenitrile], the IC50 (at EZH2/PRC2 complex; in experiment [1] (setting [2]); in experiment [1] (setting [3])) was below 25 nM each time.

For `COC(=O)N1CCC(c2cc3c(n4cnnc24)NCc2c(F)ccc4c2C(CO4)CO3)CC1` [Compound 16, methyl (S)-4-(12-fluoro-7a,8,13,14-tetrahydro-7H-[1,2,4]triazolo[4′,3′:1,6]pyrido[3,2-b]benzofuro[4,3-fg][1,4]oxazonin-4-yl)piperidine-1-carboxylate], the 50% inhibitory concentration (IC50) at EZH2/PRC2 complex was below 25 nM; in experiment [1] (setting [2]), 100 to 500 nM; in experiment [1] (setting [3]) it was 50 to 100 nM.

Take `CS(=O)(=O)c1ccc(-c2cc3c(n4cnnc24)NCc2c(F)ccc4c2C(CO4)CO3)cc1` (stereo not drawn) [Example 36]: the concentration for half-maximal inhibition (IC50) (at EZH2/PRC2 complex; in experiment [1] (setting [2]); in experiment [1] (setting [3])) was below 25 nM throughout.

On to `CC(=O)N1CCC(c2cc3c(n4cnnc24)NCc2cccc4c2[C@@H](CO4)CO3)CC1` [Compound 3, (S)-1-(4-(7a,8,13,14-tetrahydro-7H-[1,2,4]triazolo[4′,3′:1,6]pyrido[3,2-b]benzofuro[4,3-fg][1,4]oxazonin-4-yl)piperidin-1-yl)ethan-1-one], for which the IC50 was below 25 nM on EZH2/PRC2 complex, above 500 nM in experiment [1] (setting [2]) and 100 to 500 nM in experiment [1] (setting [3]).

Consider `Cn1nc(OC(F)F)cc1-c1cc2c(n3cnnc13)NCc1c(F)ccc3c1[C@@H](CO3)CO2` [Compound 167, (S)-4-(3-(difluoromethoxy)-1-methyl-1H-pyrazol-5-yl)-12-fluoro-7a,8,13,14-tetrahydro-7H-[1,2,4]triazolo[4′,3′:1,6]pyrido[3,2-b]benzofuro[4,3-fg][1,4]oxazonine], for which the 50% inhibitory concentration (IC50) (on EZH2/PRC2 complex; in experiment [1] (setting [2]); in experiment [1] (setting [3])) was below 25 nM each time.

With `Cc1ncoc1-c1cc2c(n3cnnc13)NCc1c(F)ccc3c1[C@@H](CO3)CO2` [Compound 189, (S)-12-fluoro-4-(4-methyloxazol-5-yl)-7a,8,13,14-tetrahydro-7H-[1,2,4]triazolo[4′,3′:1,6]pyrido[3,2-b]benzofuro[4,3-fg][1,4]oxazonine], the 50% inhibitory concentration (IC50) (on EZH2/PRC2 complex; in experiment [1] (setting [2]); in experiment [1] (setting [3])) was below 25 nM each time.

As for `CN(CC(F)(F)F)C(=O)c1cc2c(n3cnnc13)NCc1c(F)ccc3c1C(CO3)CO2` (stereo not drawn) [Example 38], the IC50 was below 25 nM on EZH2/PRC2 complex, 50 to 100 nM in experiment [1] (setting [2]) and 100 to 500 nM in experiment [1] (setting [3]).

Turning to `Cc1ncc(-c2cc3c(n4cnnc24)NCc2c(F)cccc2CCO3)c(C)n1` [Compound 14, 4-(2,4-dimethylpyrimidin-5-yl)-12-fluoro-7,8,13,14-tetrahydro-[1,2,4]triazolo[4′,3′:1,6]pyrido[3,2-b]benzo[f][1,4]oxazonine], the IC50 at EZH2/PRC2 complex is 50 to 100 nM; in experiment [1] (setting [2]), above 500 nM; in experiment [1] (setting [3]) it was above 500 nM.

On to `Cc1ncccc1-c1cc2c(n3cnnc13)NCc1c(F)cccc1CCO2` [Compound 5, 12-fluoro-4-(2-methylpyridin-3-yl)-7,8,13,14-tetrahydro-[1,2,4]triazolo[4′,3′:1,6]pyrido[3,2-b]benzo[f][1,4]oxazonine], for which the IC50 is 25 to 50 nM at EZH2/PRC2 complex, above 500 nM in experiment [1] (setting [2]) and above 500 nM in experiment [1] (setting [3]).

Take `Cc1ncc(-c2cc3c(n4cnnc24)NCc2c(F)ccc4c2[C@@H](CO4)CO3)c(C)n1` [Compound 13, (S)-4-(2,4-dimethylpyrimidin-5-yl)-12-fluoro-7a,8,13,14-tetrahydro-7H-[1,2,4]triazolo[4′,3′:1,6]pyrido[3,2-b]benzofuro[4,3-fg][1,4]oxazonine]: the values for the concentration for half-maximal inhibition (IC50) (at EZH2/PRC2 complex; in experiment [1] (setting [2]); in experiment [1] (setting [3])) were below 25 nM, 25 to 50 nM and below 25 nM, respectively.

On to `Cn1nccc1-c1cc2c(n3cnnc13)NCc1c(F)ccc3c1C(CO3)CO2` (stereo not drawn) [Example 17], for which the IC50 (on EZH2/PRC2 complex; in experiment [1] (setting [2]); in experiment [1] (setting [3])) was below 25 nM each time.

Source of the values: patent US20220160686A1, “MACROCYCLIC AZOLOPYRIDINE DERIVATIVES AS EED AND PRC2 MODULATORS” (Fulcrum Therapeutics, Inc., priority 2019, published 2022).
